In patent US6770597B2, “Benzohydrazide derivatives as herbicides and desiccant compositions containing them” (Ishihara Sangyo Kaisha, Ltd., priority 2002, dated 2004):

How the values were obtained:
Assay type in all cases: in vivo
[1] = system: field corn (Zea mays L., var. Dekalb 535, CORN); assay: Greenhouse herbicide screen, pre-emerge application, crop damage rating; conditions: PRE emergent, 14 days after application, rating scale 0-100
Procedure, shortened: (§1)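 Each pot received a simulated field application of test compound in acetone at 15–1000 g ai/ha. At 14 days, plants were rated from 0 (no damage) through 100 (all plants dead).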

[2] = system: upland rice (Oryza sp., var.Cocodrie, RICE); assay: as above; conditions: PRE emergent, 14 days after application, rating scale 0-100
Procedure, shortened: as §1

[3] = system: velvetleaf (Abutilon theophrasti, ABUTH); assay: Greenhouse herbicide screen, pre-emerge application, phytotoxicity rating; conditions: PRE emergent, 14 days after application, rating scale 0-100
Procedure, shortened: as §1

[4] = system: sicklepod (Cassia obtusifolia, CASOB); assay: as above; conditions: PRE emergent, 14 days after application, rating scale 0-100
Procedure, shortened: as §1

[5] = system: lambsquarters (Chenopodium album, CHEAL); assay: as above; conditions: PRE emergent, 14 days after application, rating scale 0-100
Procedure, shortened: as §1

[6] = system: barnyardgrass (Echinochloa crus-galli, ECHCG); assay: as above; conditions: PRE emergent, 14 days after application, rating scale 0-100
Procedure, shortened: as §1

[7] = system: large crabgrass (Digitaria sanguinalis, DIGSA); assay: as above; conditions: PRE emergent, 14 days after application, rating scale 0-100
Procedure, shortened: as §1

[8] = system: cocklebur (Xanthium strumarium, XANST); assay: as above; conditions: PRE emergent, 14 days after application, rating scale 0-100
Procedure, shortened: as §1

[9] = system: common ragweed (Ambrosia artemisiifolia L., AMBEL); assay: as above; conditions: PRE emergent, 14 days after application, rating scale 0-100
Procedure, shortened: as §1

[10] = system: ivyleaf morningglory (Ipomoea hederacea, IPOHE); assay: as above; conditions: PRE emergent, 14 days after application, rating scale 0-100
Procedure, shortened: as §1

[11] = system: redroot pigweed (Amaranthus retrofiexus, AMARE); assay: as above; conditions: PRE emergent, 14 days after application, rating scale 0-100
Procedure, shortened: as §1

[12] = system: green foxtail (Setaria viridis, SETVI); assay: as above; conditions: PRE emergent, 14 days after application, rating scale 0-100
Procedure, shortened: as §1

[13] = system: johnsongrass (Sorghum halepense, SORHA); assay: as above; conditions: PRE emergent, 14 days after application, rating scale 0-100
Procedure, shortened: as §1

[14] = system: field corn (Zea mays L., var. Dekalb 535, CORN); assay: Greenhouse herbicide screen, post-emerge application, crop damage rating; conditions: POST emergent, 14 days after application, scale 0-100
Procedure, shortened: as §1

[15] = system: upland rice (Oryza sp., var.Cocodrie, RICE); assay: as above; conditions: POST emergent, 14 days after application, scale 0-100
Procedure, shortened: as §1

[16] = system: velvetleaf (Abutilon theophrasti, ABUTH); assay: Greenhouse herbicide screen, post-emerge application, phytotoxicity rating; conditions: POST emergent, 14 days after application, scale 0-100
Procedure, shortened: as §1

[17] = system: sicklepod (Cassia obtusifolia, CASOB); assay: as above; conditions: POST emergent, 14 days after application, scale 0-100
Procedure, shortened: as §1

[18] = system: lambsquarters (Chenopodium album, CHEAL); assay: as above; conditions: POST emergent, 14 days after application, scale 0-100
Procedure, shortened: as §1

[19] = system: barnyardgrass (Echinochloa crus-galli, ECHCG); assay: as above; conditions: POST emergent, 14 days after application, scale 0-100
Procedure, shortened: as §1

[20] = system: large crabgrass (Digitaria sanguinalis, DIGSA); assay: as above; conditions: POST emergent, 14 days after application, scale 0-100
Procedure, shortened: as §1

[21] = system: cocklebur (Xanthium strumarium, XANST); assay: as above; conditions: POST emergent, 14 days after application, scale 0-100
Procedure, shortened: as §1

[22] = system: common ragweed (Ambrosia artemisiifolia L., AMBEL); assay: as above; conditions: POST emergent, 14 days after application, scale 0-100
Procedure, shortened: as §1

[23] = system: ivyleaf morningglory (Ipomoea hederacea, IPOHE); assay: as above; conditions: POST emergent, 14 days after application, scale 0-100
Procedure, shortened: as §1

[24] = system: redroot pigweed (Amaranthus retrofiexus, AMARE); assay: as above; conditions: POST emergent, 14 days after application
Procedure, shortened: as §1

[25] = system: green foxtail (Setaria viridis, SETVI); assay: as above; conditions: POST emergent, 14 days after application, scale 0-100
Procedure, shortened: as §1

[26] = system: johnsongrass (Sorghum halepense, SORHA); assay: as above; conditions: POST emergent, 14 days after application, scale 0-100
Procedure, shortened: as §1

[27] = 63 g ai/ha, scale 0-100 (0 no damage, 100 complete death)

CN(C)NC(=O)c1cc(-n2c(=O)cc(C(F)(F)F)n(C)c2=O)ccc1Cl [Compound 1-4]
crop damage rating CORN ([1]; 63 g ai/ha): 35
crop damage rating CORN ([1]; 250 g ai/ha): 75
crop damage rating RICE ([2]; 63 g ai/ha): 0
crop damage rating RICE ([2]; 250 g ai/ha): 8
phytotoxicity rating ABUTH ([3]; 63 g ai/ha): 30
phytotoxicity rating ABUTH ([3]; 250 g ai/ha): 99
phytotoxicity rating CASOB ([4]; 63 g ai/ha): 0
phytotoxicity rating CASOB ([4]; 250 g ai/ha): 90
phytotoxicity rating CHEAL ([5]; 63 g ai/ha): 15
phytotoxicity rating CHEAL ([5]; 250 g ai/ha): 100
phytotoxicity rating ECHCG ([6]; 63 g ai/ha): 0
phytotoxicity rating ECHCG ([6]; 250 g ai/ha): 40
phytotoxicity rating DIGSA ([7]; 63 g ai/ha): 0
phytotoxicity rating DIGSA ([7]; 250 g ai/ha): 60
phytotoxicity rating XANST ([8]; 63 g ai/ha): 0
phytotoxicity rating XANST ([8]; 250 g ai/ha): 60
phytotoxicity rating AMBEL ([9]; 63 g ai/ha): 0
phytotoxicity rating AMBEL ([9]; 250 g ai/ha): 40
phytotoxicity rating IPOHE ([10]; 63 g ai/ha): 75
phytotoxicity rating IPOHE ([10]; 250 g ai/ha): 100
phytotoxicity rating AMARE ([11]; 63 g ai/ha): 40
phytotoxicity rating AMARE ([11]; 250 g ai/ha): 95
phytotoxicity rating SETVI ([12]; 63 g ai/ha): 0
phytotoxicity rating SETVI ([12]; 250 g ai/ha): 35
phytotoxicity rating SORHA ([13]; 63 g ai/ha): 0
phytotoxicity rating SORHA ([13]; 250 g ai/ha): 35
crop damage rating CORN ([14]; 63 g ai/ha): 65
crop damage rating CORN ([14]; 250 g ai/ha): 99
crop damage rating RICE ([15]; 63 g ai/ha): 10
crop damage rating RICE ([15]; 250 g ai/ha): 65
phytotoxicity rating ABUTH ([16]; 63 g ai/ha): 100
phytotoxicity rating ABUTH ([16]; 250 g ai/ha): 100
phytotoxicity rating CASOB ([17]; 63 g ai/ha): 70
phytotoxicity rating CASOB ([17]; 250 g ai/ha): 80
phytotoxicity rating CHEAL ([18]; 63 g ai/ha): 99
phytotoxicity rating CHEAL ([18]; 250 g ai/ha): 100
phytotoxicity rating ECHCO ([19]; 63 g ai/ha): 65
phytotoxicity rating ECHCO ([19]; 250 g ai/ha): 95
phytotoxicity rating DIGSA ([20]; 63 g ai/ha): 35
phytotoxicity rating DIGSA ([20]; 250 g ai/ha): 55
phytotoxicity rating XANST ([21]; 63 g ai/ha): 100
phytotoxicity rating XANST ([21]; 250 g ai/ha): 100
phytotoxicity rating AMBEL ([22]; 63 g ai/ha): 80
phytotoxicity rating AMBEL ([22]; 250 g ai/ha): 100
phytotoxicity rating IPOHE ([23]; 63 g ai/ha): 100
phytotoxicity rating IPOHE ([23]; 250 g ai/ha): 100
phytotoxicity rating AMARE [24, 27]: 100
phytotoxicity rating AMARE ([24]; 250 g ai/ha, scale 0-100): 100
phytotoxicity rating SETVI ([25]; 63 g ai/ha): 65
phytotoxicity rating SETVI ([25]; 250 g ai/ha): 75
phytotoxicity rating SORHA ([26]; 63 g ai/ha): 50
phytotoxicity rating SORHA ([26]; 250 g ai/ha): 80

CC(=O)OC(=NN1C(C)CCCC1C)c1cc(-n2c(=O)cc(C(F)(F)F)n(C)c2=O)c(F)cc1Cl (centres unmarked) [Compound 4-9]
crop damage rating CORN ([1]; 63 g ai/ha): 30
crop damage rating CORN ([1]; 250 g ai/ha): 95
crop damage rating RICE ([2]; 63 g ai/ha): 10
crop damage rating RICE ([2]; 250 g ai/ha): 15
phytotoxicity rating ABUTH ([3]; 63 g ai/ha): 100
phytotoxicity rating ABUTH ([3]; 250 g ai/ha): 100
phytotoxicity rating CASOB ([4]; 63 g ai/ha): 80
phytotoxicity rating CASOB ([4]; 250 g ai/ha): 100
phytotoxicity rating CHEAL ([5]; 63 g ai/ha): 100
phytotoxicity rating CHEAL ([5]; 250 g ai/ha): 100
phytotoxicity rating ECHCG ([6]; 63 g ai/ha): 55
phytotoxicity rating ECHCG ([6]; 250 g ai/ha): 99
phytotoxicity rating DIGSA ([7]; 63 g ai/ha): 99
phytotoxicity rating DIGSA ([7]; 250 g ai/ha): 100
phytotoxicity rating XANST ([8]; 63 g ai/ha): 35
phytotoxicity rating XANST ([8]; 250 g ai/ha): 100
phytotoxicity rating AMBEL ([9]; 63 g ai/ha): 90
phytotoxicity rating AMBEL ([9]; 250 g ai/ha): 100
phytotoxicity rating IPOHE ([10]; 63 g ai/ha): 100
phytotoxicity rating IPOHE ([10]; 250 g ai/ha): 100
phytotoxicity rating AMARE ([11]; 63 g ai/ha): 100
phytotoxicity rating AMARE ([11]; 250 g ai/ha): 100
phytotoxicity rating SETVI ([12]; 63 g ai/ha): 100
phytotoxicity rating SETVI ([12]; 250 g ai/ha): 100
phytotoxicity rating SORHA ([13]; 63 g ai/ha): 65
phytotoxicity rating SORHA ([13]; 250 g ai/ha): 100
crop damage rating CORN ([14]; 63 g ai/ha): 0
crop damage rating CORN ([14]; 250 g ai/ha): 50
crop damage rating RICE ([15]; 63 g ai/ha): 0
crop damage rating RICE ([15]; 250 g ai/ha): 0
phytotoxicity rating ABUTH ([16]; 63 g ai/ha): 100
phytotoxicity rating ABUTH ([16]; 250 g ai/ha): 100
phytotoxicity rating CASOB ([17]; 63 g ai/ha): 60
phytotoxicity rating CASOB ([17]; 250 g ai/ha): 90
phytotoxicity rating CHEAL ([18]; 63 g ai/ha): 100
phytotoxicity rating CHEAL ([18]; 250 g ai/ha): 100
phytotoxicity rating ECHCO ([19]; 63 g ai/ha): 0
phytotoxicity rating ECHCO ([19]; 250 g ai/ha): 15
phytotoxicity rating DIGSA ([20]; 63 g ai/ha): 50
phytotoxicity rating DIGSA ([20]; 250 g ai/ha): 99
phytotoxicity rating XANST ([21]; 63 g ai/ha): 30
phytotoxicity rating XANST ([21]; 250 g ai/ha): 60
phytotoxicity rating AMBEL ([22]; 63 g ai/ha): 60
phytotoxicity rating AMBEL ([22]; 250 g ai/ha): 99
phytotoxicity rating IPOHE ([23]; 63 g ai/ha): 95
phytotoxicity rating IPOHE ([23]; 250 g ai/ha): 100
phytotoxicity rating AMARE [24, 27]: 100
phytotoxicity rating AMARE ([24]; 250 g ai/ha, scale 0-100): 100
phytotoxicity rating SETVI ([25]; 63 g ai/ha): 65
phytotoxicity rating SETVI ([25]; 250 g ai/ha): 100
phytotoxicity rating SORHA ([26]; 63 g ai/ha): 0
phytotoxicity rating SORHA ([26]; 250 g ai/ha): 80
